Among the data in ChEMBL document CHEMBL4831529, “Systematic Development of Peptide Inhibitors Targeting the CXCL12/HMGB1 Interaction” (J Med Chem, 2021) are inhibition and Kd values, retold here.

For experiment [1], the target named is C-X-C chemokine receptor type 4 (Homo sapiens) (UniProt P61073). Description: Inhibition of human CXCR4-mediated chemotaxis expressed in mouse 300-19 Pre-B cells assessed as reduction in CXCL12/HMGB1-induced cell migration at 100 uM. The class given is functional, cell-based.
For experiment [2] the target is unchanged. As to the kind of experiment: Inhibition of human CXCR4-mediated chemotaxis expressed in mouse 300-19 Pre-B cells assessed as reduction in CXCL12-induced cell migration at 100 uM. The class given is functional, cell-based.
Experiment [3] shares this target. Description: Inhibition of human CXCR4-mediated chemotaxis expressed in human monocytes assessed as reduction in CXCL12/HMGB1-induced cell migration at 100 uM. It is filed as functional, cell-based. Particulars: Monocyte.
For experiment [4] the target is unchanged. Description: Inhibition of human CXCR4-mediated chemotaxis expressed in human monocytes assessed as reduction in CXCL12-induced cell migration at 100 uM. The class given is functional, cell-based. Particulars: Monocyte.
The target is the same in experiment [5]. As to the kind of experiment: Inhibition of human CXCR4-mediated chemotaxis expressed in mouse 300-19 Pre-B cells assessed as reduction in CXCL12/HMGB1-induced cell migration at 50 uM. It is filed as functional, cell-based.
Experiment [6] has as its target Toll-like receptor 4 (Homo sapiens) (UniProt O00206). As to the kind of experiment: Inhibition of HMGB1 binding to TLR4 in human monocytes assessed as reduction in HMGB1-induced IL-6 production at 100 uM by cytometric bead array. Particulars: Monocyte. It is filed as cell-based.
Experiment [7] shares this target. As to the kind of experiment: Inhibition of HMGB1 binding to TLR4 in human monocytes assessed as reduction in HMGB1-induced TNF production at 100 uM by cytometric bead array. Particulars: Monocyte. The class given is cell-based.
Experiment [8] deals with T1, High mobility group protein B1 (Homo sapiens, UniProt P09429).
T1 sequence (P09429 whole entry): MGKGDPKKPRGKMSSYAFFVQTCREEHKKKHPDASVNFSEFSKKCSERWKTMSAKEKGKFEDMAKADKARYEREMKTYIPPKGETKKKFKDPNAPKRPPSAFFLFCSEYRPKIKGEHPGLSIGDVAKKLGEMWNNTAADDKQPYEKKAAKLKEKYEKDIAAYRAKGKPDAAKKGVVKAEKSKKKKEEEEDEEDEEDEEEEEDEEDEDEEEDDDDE
As to the kind of experiment: Binding affinity to full-length N-terminal 6His-tagged HMGB1 (unknown origin) by NMR spectra.

For experiment [9], the target named is T1, High mobility group protein B1. Description: Binding affinity to 6His-tagged HMGB1 (unknown origin) incubated for 15 mins by MST analysis.
Experiment [10] has as its target C-X-C chemokine receptor type 4 (Homo sapiens) (UniProt P61073). As to the kind of experiment: Inhibition of human CXCR4-mediated chemotaxis expressed in mouse 300-19 Pre-B cells assessed as reduction in CXCL12/HMGB1-induced cell migration at 200 uM. The class given is functional, cell-based.

Calls of active or inactive are those of the source. The calls are words filed in the database; no cut-off is given here.

Sequence of C-X-C chemokine receptor type 4 (Homo sapiens) (P61073 whole entry): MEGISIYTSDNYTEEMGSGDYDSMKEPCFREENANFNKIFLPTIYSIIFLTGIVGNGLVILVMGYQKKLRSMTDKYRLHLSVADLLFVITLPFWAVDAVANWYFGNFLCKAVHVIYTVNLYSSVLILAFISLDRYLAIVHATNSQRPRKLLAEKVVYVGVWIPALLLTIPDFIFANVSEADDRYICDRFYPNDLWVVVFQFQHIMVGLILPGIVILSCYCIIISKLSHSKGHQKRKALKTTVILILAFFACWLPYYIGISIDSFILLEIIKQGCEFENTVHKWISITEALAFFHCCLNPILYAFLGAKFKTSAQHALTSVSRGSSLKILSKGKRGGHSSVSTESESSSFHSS
Sequence of Toll-like receptor 4 (Homo sapiens) (O00206 whole entry): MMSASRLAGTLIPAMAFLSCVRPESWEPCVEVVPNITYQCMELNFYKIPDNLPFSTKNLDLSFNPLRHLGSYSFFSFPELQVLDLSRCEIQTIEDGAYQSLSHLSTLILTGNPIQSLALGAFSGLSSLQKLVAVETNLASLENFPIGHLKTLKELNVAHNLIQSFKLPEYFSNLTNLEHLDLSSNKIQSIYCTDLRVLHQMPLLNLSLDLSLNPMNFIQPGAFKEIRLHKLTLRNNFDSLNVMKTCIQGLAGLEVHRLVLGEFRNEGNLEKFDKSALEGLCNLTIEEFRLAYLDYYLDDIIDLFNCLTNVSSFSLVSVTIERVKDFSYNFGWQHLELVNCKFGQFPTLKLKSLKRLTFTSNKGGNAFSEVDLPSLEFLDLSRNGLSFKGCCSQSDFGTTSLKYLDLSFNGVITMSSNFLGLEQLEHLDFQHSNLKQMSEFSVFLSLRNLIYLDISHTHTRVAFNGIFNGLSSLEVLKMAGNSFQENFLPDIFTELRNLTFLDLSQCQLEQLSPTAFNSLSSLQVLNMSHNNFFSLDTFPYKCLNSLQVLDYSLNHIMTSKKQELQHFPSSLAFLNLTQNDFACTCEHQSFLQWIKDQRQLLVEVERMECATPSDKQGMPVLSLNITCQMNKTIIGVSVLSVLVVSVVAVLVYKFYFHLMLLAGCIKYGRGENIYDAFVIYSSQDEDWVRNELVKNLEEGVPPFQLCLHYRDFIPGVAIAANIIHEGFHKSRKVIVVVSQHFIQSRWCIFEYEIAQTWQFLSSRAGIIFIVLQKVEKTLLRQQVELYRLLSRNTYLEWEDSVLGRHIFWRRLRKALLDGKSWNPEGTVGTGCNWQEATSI

What is called inhibition is how much of the control response was suppressed. H-GYHYERWIH-OH: the inhibition result in experiment [1] and in [3] was “Active” each time. The inhibition result in experiment [2], in experiment [4], in [6] and in [7] was “inactive” each time. The inhibition in experiment [5] is 50%.
In general, Kd refers to the free concentration of one partner at which half of the binding sites on the other are occupied at equilibrium, for simple one-to-one binding. The molecule `O=C(O)c1cc(-c2ccc(F)cc2F)ccc1O` [DIFLUNISAL] returned a Kd in experiment [8] of 1600 µM.
For the molecule H-WISNWILMW-OH, the inhibition entry in [1] and in experiment [2] was “Active” in each case.
For the molecule H-GYHYE-OH, the Kd entry in [9] is “Not Active”.
In the case of H-ERWIH-OH, the Kd in experiment [9] (read-out: Kd) stood at 160 µM.
Turning to `CC1(C)[C@@H](O[C@H]2O[C@H](C(=O)O)[C@@H](O)[C@H](O)[C@H]2O[C@@H]2O[C@H](C(=O)O)[C@@H](O)[C@H](O)[C@H]2O)CC[C@]2(C)[C@H]3C(=O)C=C4[C@@H]5C[C@@](C)(C(=O)O)CC[C@]5(C)CC[C@@]4(C)[C@]3(C)CC[C@@H]12`, the inhibition entry in experiment [10] was “Active”.
On to H-HWTLANWCR-OH, for which the inhibition result in experiment [1] was “Active”. Further, in experiment [2], the inhibition result was “inactive”.
Consider H-YHICWYGDY-OH, for which the inhibition entry in experiment [1] and in experiment [2] was “Active” each time.
